The results in this text go back to ChEMBL document CHEMBL5352472, “Mode of action of p-quinone derivatives with trypanocidal activity studied by experimental and in silico models” (Eur J Med Chem, 2023).

Data set [1] is described as follows: Selectivity index, ratio of CC50 for cytotoxicity against mouse J774 cells to EC50 for trypanocidal activity against blood stream form Trypanosoma brucei 427. The conditions noted are these: read-out: Ratio CC50/EC50. Format: toxicity, cell-based.
In data set [2] the test system is Trypanosoma brucei. Description: Redox activity against blood stream form Trypanosoma brucei 427 expressing redox-sensitive green fluorescent protein fused human glutaredoxin assessed as biosensor oxidation by measuring fluorescence at 2 times EC50 incubated for 1 hr by propidium iodide staining based flow cytometric analysis relative to control. It counts as functional. Background: A flow cytometer gives signals particle by particle.

Data set [3] can be described thus: Cytotoxicity against mouse J774 cells after 24 hrs by WST-1 assay. It counts as toxicity, cell-based.
The subject of data set [4] is Trypanosoma brucei. Description: Trypanocidal activity against blood stream form Trypanosoma brucei 427 expressing red-shifted luciferase gene measured after 24 hrs by microplate luminometer analysis. Format: functional, organism-based. The conditions noted are these: Trypanosoma brucei, 427, 24 h.
The subject of data set [5] is J774. The data set can be described thus: Cytotoxicity against mouse J774 cells at 10 uM after 24 hrs by WST-1 assay relative to control. Format: toxicity, cell-based. The conditions noted are these: j774, 24 h. For orientation: Tetrazolium dyes change colour on reduction, which living cells bring about.
Data set [6] concerns J774. The data set can be described thus: Cytotoxicity against mouse J774 cells at 50 uM after 24 hrs by WST-1 assay relative to control. Format: toxicity, cell-based. The conditions noted are these: j774, 24 h.
In data set [7] the test system is Trypanosoma brucei. Description: Redox activity against blood stream form Trypanosoma brucei 427 expressing redox-sensitive green fluorescent protein fused human glutaredoxin assessed as biosensor oxidation by measuring fluorescence at 1 times EC50 incubated for 1 hr by propidium iodide staining based flow cytometric analysis relative to control. Format: functional.

Data set [8] deals with Trypanosoma cruzi. The data set can be described thus: Trypanocidal activity against Trypanosoma cruzi DM28c amastigotes expressing red-shifted luciferase gene infected in african green monkey Vero cells incubated for 72 hrs by microplate luminometer analysis. Format: functional, organism-based.
Data set [9] in a line: Selectivity index, ratio of CC50 for cytotoxicity against mouse J774 cells to EC50 for trypanocidal activity against Trypanosoma cruzi DM28c amastigotes. It counts as toxicity, cell-based. The conditions noted are these: read-out: Ratio CC50/EC50.
Data set [10] deals with Leishmania infantum. The data set can be described thus: Antileishmanial activity against Leishmania infantum MHOM/MA/67/ITMAP263 promastigotes expressing red-shifted luciferase gene infected in mouse J774 cells incubated at 10 uM for 24 hrs by microplate luminometer analysis relative to control. It counts as functional.
Data set [11] relates to Trypanosoma cruzi. Description: Trypanocidal activity against Trypanosoma cruzi DM28c amastigotes expressing red-shifted luciferase gene infected in african green monkey Vero cells incubated at 10 uM for 72 hrs by microplate luminometer analysis relative to control. It counts as functional.
For data set [12], the system named is Leishmania infantum. The data set can be described thus: Antileishmanial activity against Leishmania infantum MHOM/MA/67/ITMAP263 promastigotes expressing red-shifted luciferase gene infected in mouse J774 cells incubated at 20 uM for 24 hrs by microplate luminometer analysis relative to control. It counts as functional.
Data set [13] can be described thus: Selectivity index, ratio of CC50 for cytotoxicity against mouse J774 cells to EC50 for trypanocidal activity against Leishmania infantum MHOM/MA/67/ITMAP263 promastigotes. Format: toxicity, cell-based. The conditions noted are these: read-out: Ratio CC50/EC50.
Data set [14] deals with Leishmania infantum. Description: Antileishmanial activity against Leishmania infantum MHOM/MA/67/ITMAP263 promastigotes expressing red-shifted luciferase gene infected in mouse J774 cells incubated for 24 hrs by microplate luminometer analysis. The conditions noted are these: MHOM/MA/67/ITMAP263, J774, 24 h. Format: functional, organism-based.

By CC50 is commonly meant the concentration giving 50% cytotoxicity. What is called EC50 is the concentration giving half of the maximal effect.

For the compound `O=C1C(Nc2ccccc2)=C(Br)C(=O)c2oc(-c3ccccc3)nc21`, the selectivity ratio in [1] was under 5. The Activity in the data set on Trypanosoma brucei [2] worked out at 95.87%; with J774 [5], 0.5%. The compound further returned a CC50 at 24 h in [3] of under 10 µM. In the data set with Trypanosoma brucei [4], the EC50 came to 1.9 µM.
For `O=C1C=C(Br)C(=O)c2oc(-c3ccccc3)nc21`, the selectivity ratio in data set [1] is under 6. Besides, the Activity in the data set with Trypanosoma brucei [2] stood at 20.95%; with J774 [5] it was 10%. The CC50 at 24 h in data set [3] was under 10 µM. For the same compound, the EC50 with Trypanosoma brucei [4] is 1.6 µM.
In the case of `O=C1C=C(Oc2ccc(CO)cc2)C(=O)c2ccccc21`, the selectivity ratio in data set [1] was about 11. In addition, the results for the Activity with Trypanosoma brucei [2] and in the data set on J774 [6] were 87.33% and 49%, respectively. This compound showed a 50% cytotoxic concentration (CC50) at 24 h in [3] of about 50 µM. The EC50 with Trypanosoma brucei [4] stood at 4.6 µM.
Take `CC(C)(C)c1ccc(OC2=CC(=O)c3ccccc3C2=O)cc1`: the selectivity ratio in data set [1] was under 9. In addition, the Activity with Trypanosoma brucei [7] was determined as 81.7%; with J774 [6] it was 24%. In addition, in data set [3], the CC50 at 24 h was under 50 µM. Also, the EC50 with Trypanosoma brucei [4] turned out to be 5.5 µM.
Regarding `O=C1C=C(Oc2ccccc2)C(=O)c2sc(-c3ccccc3)nc21`, the selectivity ratio in [1] is under 6. Further, the Activity worked out at 95.51% in the data set on Trypanosoma brucei [7] and 40% in the data set on J774 [5]. The CC50 at 24 h in [3] was under 10 µM. For the same compound, the EC50 in the data set with Trypanosoma brucei [4] is 1.8 µM.
Consider `O=C1C(Nc2ccccc2)=C(Br)C(=O)c2oc(-c3ccccc3)cc21`, for which the selectivity ratio in [1] was found to be 63; in data set [9], 71. Also, the EC50 in the data set on Trypanosoma cruzi [8] is 0.8 µM; in the data set with Trypanosoma brucei [4], 0.9 µM. In addition, the Activity is 71.31% with Trypanosoma brucei [7] and 102% with Leishmania infantum [10]. Also, half-maximal cytotoxicity in data set [3] (CC50 at 24 h) was put at 57 µM.
For the compound `O=C1C=CC(=O)c2sc(-c3ccccc3)nc21`, the selectivity ratio in data set [1] was under 8. The Activity in the data set on Trypanosoma brucei [2] came out at 99.42%; in the data set on J774 [5] it was 0%. The compound also displayed a CC50 at 24 h in [3] of under 10 µM. Also, the 50% effective concentration (EC50) with Trypanosoma brucei [4] worked out at 1.3 µM.
As for `O=C1C=C(Br)C(=O)c2oc(-c3ccccc3)cc21`, in data set [1], the selectivity ratio was 2. The Activity in the data set on Trypanosoma brucei [7] is 99.25%. Also, half-maximal cytotoxicity in data set [3] (CC50 at 24 h) was put at 59 µM. In addition, the EC50 with Trypanosoma brucei [4] came to 38 µM.
For `O=C1C=CC(=O)c2oc(-c3ccccc3)cc21`, the selectivity ratio in [1] came to 44. Further, the Activity in the data set on Trypanosoma brucei [2] was found to be 95.33%; in the data set on Trypanosoma cruzi [11], 88%; in the data set with Leishmania infantum [10], 129%. This compound gave a 50% cytotoxic concentration (CC50) at 24 h in data set [3] of 118 µM. For the same compound, the EC50 with Trypanosoma brucei [4] is 2.7 µM.
Turning to `COc1ccc(OC2=CC(=O)c3nc(-c4ccccc4)sc3C2=O)cc1`, the values for the selectivity ratio in data set [1] and in data set [9] were 43 and 71, respectively. Besides, the Activity was found to be 89.22% in the data set on Trypanosoma brucei [2] and 90% in the data set on Leishmania infantum [12]. Moreover, the EC50 in the data set on Trypanosoma cruzi [8] came out at 1.1 µM; in the data set with Trypanosoma brucei [4], 1.8 µM. Moreover, the CC50 at 24 h in data set [3] came to 78 µM.
Turning to `O=C1C=CC(=O)c2oc(-c3ccccc3)nc21`, in [1], the selectivity ratio was under 4. Besides, the Activity came out at 100% with Trypanosoma brucei [2] and 21% in the data set with J774 [5]. In addition, the 50% cytotoxic concentration (CC50) at 24 h in data set [3] was under 10 µM. For the same compound, the EC50 in the data set on Trypanosoma brucei [4] is 2.3 µM.
For `O=C1C=C(Oc2ccccc2)C(=O)c2oc(-c3ccccc3)cc21`, the selectivity ratio in data set [1] came to 13. Also, in the data set with Trypanosoma brucei [7], the Activity is 85.4%. Also, the CC50 at 24 h in [3] came out at 37 µM. Also, the EC50 in the data set with Trypanosoma brucei [4] came to 2.9 µM.
With `O=C1C(Nc2ccccc2)=C(Br)C(=O)c2sc(-c3ccccc3)nc21`, the selectivity ratio in [1] is under 22. Moreover, the results for the Activity with Trypanosoma brucei [2] and in the data set with J774 [5] were 85.67% and 117%, respectively. Also, the CC50 at 24 h in [3] was under 10 µM. The EC50 in the data set with Trypanosoma brucei [4] came to 0.5 µM.
For the compound `O=C1C=C(Oc2ccccc2)C(=O)c2oc(-c3ccccc3)nc21`, in data set [1], the selectivity ratio is 14. Further, the Activity with Trypanosoma brucei [2] is 94.92%. Further, the CC50 at 24 h in data set [3] came to 46 µM. Also, the EC50 in the data set with Trypanosoma brucei [4] was 3.3 µM.
`O=C1C=C(Br)C(=O)c2sc(-c3ccccc3)nc21`: the selectivity ratio in data set [1] amounted to 40. For the same compound, the Activity with Trypanosoma brucei [2] amounted to 96.99%; with Leishmania infantum [12] it was 91%; with Trypanosoma cruzi [11] it was 78%. The compound further yielded a CC50 at 24 h in data set [3] of 61 µM. In addition, the EC50 in the data set with Trypanosoma brucei [4] came out at 1.5 µM.
Regarding `O=C1C=C(Oc2ccc3cc(O)ccc3c2)C(=O)c2ccccc21`, the selectivity ratio in data set [1] was about 14. Besides, the Activity in the data set with Trypanosoma brucei [2] was 40.54%; in the data set with J774 [6] it was 63%. In data set [3], this compound came in with a CC50 at 24 h of about 50 µM. Further, in the data set on Trypanosoma brucei [4], the 50% effective concentration (EC50) is 4.3 µM.
In the same order, the values of `COc1ccc2cc(OC3=CC(=O)c4ccccc4C3=O)ccc2c1` are about 10, 59.07%, 57%, about 50 µM and 5.2 µM.
Regarding `O=C1C=C(Oc2ccc3cccnc3c2)C(=O)c2ccccc21`, in data set [1], the selectivity ratio was under 13. Moreover, the figures for the Activity in the data set with Trypanosoma brucei [2] and with J774 [6] were 7.92% and 37%, respectively. The compound further displayed a CC50 at 24 h in data set [3] of under 50 µM. Moreover, the half-maximal effective concentration (EC50) with Trypanosoma brucei [4] amounted to 3.8 µM.
As to `O=C1C=C(Oc2ccc(F)cc2)C(=O)c2sc(-c3ccccc3)nc21`, the selectivity ratio in [1] is under 2. In addition, the values for the Activity in the data set on Trypanosoma brucei [2] and in the data set on J774 [5] were 92.06% and 5%, respectively. The compound further showed a CC50 at 24 h in [3] of under 10 µM. Moreover, the EC50 in the data set on Trypanosoma brucei [4] came to 5 µM.
Take `C[C@@H]1[C@H](O)[C@@H](C)/C=C/C=C/C=C/C=C/C=C/C=C/C=C/[C@H](O[C@@H]2O[C@H](C)[C@@H](O)[C@H](N)[C@@H]2O)C[C@@H]2O[C@](O)(C[C@@H](O)C[C@@H](O)[C@H](O)CC[C@@H](O)C[C@@H](O)CC(=O)O[C@H]1C)C[C@H](O)[C@H]2C(=O)O` [AMPHOTERICIN B]: in data set [13], the selectivity ratio came out at 257. Besides, in [3], the CC50 at 24 h is 9 µM. For the same compound, the EC50 in the data set on Leishmania infantum [14] came to 0.035 µM.
The like results for `CCCCCCCCCCCCCCCCOP(=O)([O-])OCC[N+](C)(C)C` [MILTEFOSINE] were, in that order, about 1, 50 µM and 38.2 µM.
For `CC1CS(=O)(=O)CCN1/N=C/c1ccc([N+](=O)[O-])o1` (stereo not given) [NIFURTIMOX], the selectivity ratio in data set [1] stood at 19; in data set [9] it was 142. Also, the results for the EC50 in the data set on Trypanosoma cruzi [8] and in the data set with Trypanosoma brucei [4] were 0.7 µM and 5.3 µM, respectively. In addition, in data set [3], the midpoint of cytotoxicity, the CC50 at 24 h, lay at 100 µM. Further, the Activity in the data set on Leishmania infantum [12] turned out to be 137%.
